Measured values reported in US10752656B2, “Anti-microbial supramolecular structures” (Northwestern University, priority 2016, dated 2020).
Values after ≈ are worked out from the molar mass of the structure shown. Non-standard residues stand in square brackets, D forms with d. Residues, ends and D or L forms follow the SMILES beside them. *: point of attachment. Phe(F5) = N[C@@H](Cc1c(F)c(F)c(F)c(F)c1F)C(=O)O; Palmitoyl = CCCCCCCCCCCCCCCC(=O)*

Experiments:
Staphylococcus aureus = type: cell-based
Method: S. aureus (ATCC 25923) (American Type Culture Collection, Manassas, Va.) was cultured in LB broth overnight at 37° C. The suspension of the overnight culture was inoculated in fresh LB broth and cultured under aerobic conditions until reaching an OD600 value of approximately 0.5 (exponential growth phase). The bacterial cells were harvested by centrifugation at 1,500×g for 10 min, washed thrice with PBS, and re-suspended in the appropriate solution for experiment. The bacterial cell suspensions were diluted to an OD600 value of 0.1, which corresponds to 1×10^7 CFU/mL for S. aureus. Before experiment, the bacterial cells were then diluted 1:10 with PBS unless otherwise noted.
The MIC values of peptide amphiphiles were determined in PBS. The MIC determination was made by the Mueller-Hinton (MH) agar plate method. Two-fold serial dilutions of test compound (peptide amphiphiles) solutions in PBS were firstly made in a 96-well microtiter plate. The test compound concentration ranged from 500 μM to 1 μM with 50 μL volume. Then, 50 μL of S. aureus (1×10^6 CFU/mL) suspended in PBS was added to each well for a final cell density of 5×10^5 CFU/mL. The samples were incubated for 3 hrs at 37° C., and then streaked onto MH agar plates. The plates were incubated overnight at 37° C. and the MIC value was recorded based on the lowest test compound concentration that inhibited colony growth.
The minimum inhibitory concentration (MIC) of the PAs against Staphylococcus aureus was determined to estimate their bioactivity as antimicrobial agents. The bacterial cell density is 5×10^5 CFU/mL, and the concentration of the PA solutions is ranging from 0.3 μM to 500 μM. […], the MIC value for PAs Z1 and Z2 was determined to be 4 μM, while inhibition of the growth of the bacterium after treatment by parent PA and PA Z3 at 500 μM was not observed.

[1] = Rheological experiment on PA gels formed with CaCl2; type: physicochemical; settings: 5 mM PA gelled with 0.2 M CaCl2, 100 Hz, 0.5% strain, 25° C.
Method: The mechanical property of the PAs was evaluated by performing rheological studies. 25 μL of 0.2 M CaCl2 were added to gel 250 μL of 5 mM PA MilliQ-water solution aged for 2 days on the rheometer. Tests were performed at 100 Hz with 0.5% strain at 25° C., using a 25 mm parallel plate with a 0.5 mm gap distance. The storage moduli used were taken from the time test at 5000 seconds. Frequency sweeps were done at a constant strain of 0.5%, and strain sweeps were done at a frequency of 100 Hz. The plateau modulus was determined as 10, 7.5, 7.5, and 2.8 kPa for parent PA, PA Z1, Z2, and Z3, respectively.

Q: With CCCCCCCCCCCCCCCC(=O)N[C@@H](Cc1c(F)c(F)c(F)c(F)c1F)C(=O)N[C@H](C(=O)N[C@H](C(=O)N[C@@H](C)C(=O)N[C@@H](C)C(=O)N[C@@H](C)C(=O)N[C@@H](CCC(=O)O)C(=O)N[C@@H](CCC(=O)O)C(=O)N[C@@H](CCC(=O)O)C(N)=O)C(C)C)C(C)C [PA Z1] (Palmitoyl-[Phe(F5)]VVAAAEEE-NH2; C-terminus assumed) as the molecule, how does the “minimum inhibitory concentration (MIC)” value (Staphylococcus aureus) read?
A: 4 µM (≈ 5.17 µg/mL)

Q: What about the plateau modulus [1] of the same molecule?
A: 7.5 kPa

Q: With CCCCCCCCCCCCCCCC(=O)N[C@H](C(=O)N[C@H](C(=O)N[C@@H](Cc1c(F)c(F)c(F)c(F)c1F)C(=O)N[C@@H](C)C(=O)N[C@@H](C)C(=O)N[C@@H](C)C(=O)N[C@@H](CCC(=O)O)C(=O)N[C@@H](CCC(=O)O)C(=O)N[C@@H](CCC(=O)O)C(N)=O)C(C)C)C(C)C [PA Z3] (Palmitoyl-VV[Phe(F5)]AAAEEE-NH2; C-terminus assumed) as the molecule, how does the “minimum inhibitory concentration (MIC)” value (Staphylococcus aureus) read?
A: > 500 µM

Q: And the plateau modulus [1]?
A: 2.8 kPa

Q: For CCCCCCCCCCCCCCCC(=O)N[C@H](C(=O)N[C@@H](Cc1c(F)c(F)c(F)c(F)c1F)C(=O)N[C@H](C(=O)N[C@@H](C)C(=O)N[C@@H](C)C(=O)N[C@@H](C)C(=O)N[C@@H](CCC(=O)O)C(=O)N[C@@H](CCC(=O)O)C(=O)N[C@@H](CCC(=O)O)C(N)=O)C(C)C)C(C)C [PA Z2] (Palmitoyl-V[Phe(F5)]VAAAEEE-NH2; C-terminus assumed), which “minimum inhibitory concentration (MIC)” value (Staphylococcus aureus) is on record?
A: 4 µM (≈ 5.17 µg/mL)

Q: What about the plateau modulus [1] of the same molecule?
A: 7.5 kPa

Q: What does the source list for CCCCCCCCCCCCCCCC(=O)N[C@H](C(=O)N[C@H](C(=O)N[C@H](C(=O)N[C@@H](C)C(=O)N[C@@H](C)C(=O)N[C@@H](C)C(=O)N[C@@H](CCC(=O)O)C(=O)N[C@@H](CCC(=O)O)C(=O)N[C@@H](CCC(=O)O)C(N)=O)C(C)C)C(C)C)C(C)C [parent PA, reference compound] (Palmitoyl-VVVAAAEEE-NH2; C-terminus assumed)?
A: minimum inhibitory concentration (MIC) (Staphylococcus aureus): > 500 µM; plateau modulus [1]: 10 kPa
